Results reported in US20050004092A1, “Penem derivatives and antimicrobial agent containing the same” (DAIICHI SUNTORY PHARMA CO., LTD., priority 1995, published 2005).
Values after ≈ are worked out from the molar mass of the structure shown.

Experiments:
Test in all cases: antibacterial activity (MIC), standard in vitro dilution test
[1] = system: MRSA 33 high-resist. (IPM resist.); type: cell-based, Staphylococcus aureus; conditions: test bacterium strain 10^5 cfu/ml; for MIC: Staphylococcus aureus, MRSA, read-out: MIC, MRSA 33 high-resist. (IPM resist.)
Text: (§1) With respect to certain compounds (I) of the present invention, their general antibacterial activities and their antibacterial activities (MIC) against various methicillin-resistant strains of Staphylococcus aureus (methicillin-resistant Staphylococcus aureus: MRSA) were investigated. The results will be shown next.
(§2) Of the investigations, the general antibacterial activities were investigated by a standard in vitro dilution test.
(§3) As test bacteria, Staphylococcus aureus 209P JC-1, Escherichia coli NIHJ JC-2 and MRSAs were used.

[2] = system: MRSA 31 high-resist. (IPM resist.); type: cell-based, Staphylococcus aureus; conditions: test bacterium strain 10^5 cfu/ml; for MIC: Staphylococcus aureus, MRSA, read-out: MIC, MRSA 31 high-resist. (IPM resist.)
Text: as §1, §2, §3

[3] = system: Staphylococcus aureus 209P JC-1 strain; type: cell-based; conditions: test bacterium strain 10^5 cfu/ml; for MIC: Staphylococcus aureus, 209P, read-out: MIC, Staphylococcus aureus 209P JC-1 strain
Text: as §1, §2, §3

[4] = system: Escherichia coli NIHJ JC-2 strain; type: cell-based; conditions: for MIC: Escherichia coli, NIHJJC2, test bacterium strain 10^5 cfu/ml, read-out: MIC, Escherichia coli NIHJ JC-2 strain; for MIC, Escherichia coli NIHJ JC-2 strain: test bacterium strain 10^5 cfu/ml
Text: as §1, §2, §3

Compound | MIC [1] [µg/mL] | MIC [2] [µg/mL] | MIC [3] [µg/mL] | MIC [4] [µg/mL] | MIC, MRSA 33 high-resist. (IPM resist.) [1] [µg/mL] | MIC, MRSA 31 high-resist. (IPM resist.) [2] [µg/mL] | MIC, Staphylococcus aureus 209P JC-1 strain [3] | MIC, Escherichia coli NIHJ JC-2 strain [4] [µg/mL]
CC[C@H](O)[C@@H]1C(=O)N2C(C(=O)O)=C(SC3CCN(C/C=C/c4ccccc4)C3)S[C@H]12 (stereo partly shown) [Ex. 228] | 3.13 (≈ 7.01 µM) | 3.13 (≈ 7.01 µM) | 0.05 (≈ 0.112 µM) | 12.5 (≈ 28 µM) | – | – | – | –
CC[C@H](O)[C@@H]1C(=O)N2C(C(=O)O)=C(S[C@H]3CCN(CC(=O)c4ccc(OC)cc4)C3)S[C@H]12 [Ex. 114, (5R,6R)-6-((S)-1-hydroxypropyl)-2-((S)-1-(2-p-methoxyphenyl-2-oxoethyl)pyrrolidin-3-yl)thiopenem-3-carboxylic acid] | 6.25 (≈ 13.1 µM) | 6.25 (≈ 13.1 µM) | 0.2 (≈ 0.418 µM) | 0.2 (≈ 0.418 µM) | – | – | – | –
CC[C@H](O)[C@@H]1C(=O)N2C(C(=O)O)=C(SCCNC(=N)c3ccccc3)S[C@H]12 [Ex. 132, (5R,6R)-2-(2-(α-iminobenzyl)-aminoethyl)thio-6-((S)-1-hydroxypropyl)penem-3-carboxylic acid] | 6.25 (≈ 15.3 µM) | 6.25 (≈ 15.3 µM) | 0.1 (≈ 0.245 µM) | 1.56 (≈ 3.83 µM) | – | – | – | –
CC[C@H](O)[C@@H]1C(=O)N2C(C(=O)O)=C(S[C@H]3CCN(CC(=O)c4ccccc4)C3)S[C@H]12 [Ex. 111, (5R,6R)-6-((S)-1-hydroxypropyl)-2-((S)-1-phenacylpyrrolidin-3-yl)thiopenem-3-carboxylic acid] | 3.13 (≈ 6.98 µM) | 3.13 (≈ 6.98 µM) | 0.1 (≈ 0.223 µM) | 0.2 (≈ 0.446 µM) | – | – | – | –
CC[C@H](O)[C@@H]1C(=O)N2C(C(=O)O)=C(S[C@H]3CCN(CCOc4ccccc4)C3)S[C@H]12 [Ex. 210] | 6.25 (≈ 13.9 µM) | 6.25 (≈ 13.9 µM) | 0.1 (≈ 0.222 µM) | 12.5 (≈ 27.7 µM) | – | – | – | –
CC[C@H](O)[C@@H]1C(=O)N2C(C(=O)O)=C(SCc3ccc(C#N)cc3)S[C@H]12 [Ex. 239] | 1.56 (≈ 4.14 µM) | 0.78 (≈ 2.07 µM) | 0.1 (≈ 0.266 µM) | 12.5 (≈ 33.2 µM) | – | – | – | –
CC[C@H](O)[C@@H]1C(=O)N2C(C(=O)O)=C(SCc3ccccn3)S[C@H]12 [Ex. 129, (5R,6R)-6-((S)-1-hydroxypropyl)-2-(2-pyridylmethyl)thiopenem-3-carboxylic acid] | 6.25 (≈ 17.7 µM) | 6.25 (≈ 17.7 µM) | 0.2 (≈ 0.567 µM) | 6.25 (≈ 17.7 µM) | – | – | – | –
CC[C@H](O)[C@@H]1C(=O)N2C(C(=O)O)=C(S[C@H]3CCN(c4ccccn4)C3)S[C@H]12 [Ex. 204] | 3.13 (≈ 7.68 µM) | 3.13 (≈ 7.68 µM) | 0.1 (≈ 0.245 µM) | 6.25 (≈ 15.3 µM) | – | – | – | –
CC[C@H](O)[C@]1(C(=O)O)C(=O)N2C=C(S[C@H]3CCN(Cc4ccccc4)C3)S[C@@H]21 [Ex. 44, (5R,6R)-2-((S)-1-benzylpyrrolidin-3-yl)thio-6-((S)-1-hydroxypropyl)penem-6-carboxylic acid] | 3.13 (≈ 7.44 µM) | 3.13 (≈ 7.44 µM) | 0.1 (≈ 0.238 µM) | 3.13 (≈ 7.44 µM) | – | – | – | –
CC[C@H](O)[C@@H]1C(=O)N2C(C(=O)O)=C(S[C@H]3CCN(C(=N)Nc4ccccc4)C3)S[C@H]12 [Ex. 243] | 6.25 (≈ 13.9 µM) | 6.25 (≈ 13.9 µM) | 0.2 (≈ 0.446 µM) | 1.56 (≈ 3.48 µM) | – | – | – | –
CC[C@H](O)[C@@H]1C(=O)N2C(C(=O)O)=C(Sc3ccccc3)S[C@H]12 [Ex. 151, (5R,6R)-6-((S)-1-hydroxypropyl)-2-phenylthiopenem-3-carboxylic acid] | 6.25 (≈ 18.5 µM) | 6.25 (≈ 18.5 µM) | 0.1 (≈ 0.296 µM) | 25 (≈ 74.1 µM) | – | – | – | –
C=CCN1CCC(SC2=C(C(=O)O)N3C(=O)[C@@H]([C@@H](O)CC)[C@H]3S2)C1 (stereo partly drawn) [Ex. 18, (5R,6R)-2-(1-allyl-3-pyrrolidine)-thio-6-((S)-1-hydroxypropyl)penem-3-carboxylic acid] | – | – | – | – | 3.13 (≈ 8.45 µM) | 3.13 (≈ 8.45 µM) | ≦0.025 μg/ml | 0.39 (≈ 1.05 µM)
CC[C@H](O)[C@@H]1C(=O)N2C(C(=O)O)=C(SC3CCN(CC(=O)c4ccccc4C)C3)S[C@H]12 (stereo partly shown) [Ex. 226] | 6.25 (≈ 13.5 µM) | 6.25 (≈ 13.5 µM) | 0.2 (≈ 0.432 µM) | 0.39 (≈ 0.843 µM) | – | – | – | –
CC[C@H](O)[C@@H]1C(=O)N2C(C(=O)O)=C(S[C@H]3CCN(c4nccs4)C3)S[C@H]12 [Ex. 229] | 3.13 (≈ 7.57 µM) | 3.13 (≈ 7.57 µM) | 0.1 (≈ 0.242 µM) | 12.5 (≈ 30.2 µM) | – | – | – | –
CC[C@H](O)[C@@H]1C(=O)N2C(C(=O)O)=C(Sc3nc(-c4ccccc4)cs3)S[C@H]12 [Ex. 152, (5R,6R)-6-((S)-1-hydroxypropyl)-2-(4-phenylthiazol-2-yl)thiopenem-3-carboxylic acid] | 3.13 (≈ 7.44 µM) | 3.13 (≈ 7.44 µM) | 0.05 (≈ 0.119 µM) | 50 (≈ 119 µM) | – | – | – | –
CC[C@H](O)[C@@H]1C(=O)N2C(C(=O)O)=C(SC3CCCN(Cc4ccccc4)C3)S[C@H]12 (stereo partly shown) [Ex. 125*^4] | 6.25 (≈ 14.4 µM) | 6.25 (≈ 14.4 µM) | 0.2 (≈ 0.46 µM) | 12.5 (≈ 28.8 µM) | – | – | – | –
CC[C@H](O)[C@@H]1C(=O)N2C(C(=O)O)=C(S[C@H]3CCN(c4ncccn4)C3)S[C@H]12 [Ex. 209] | 6.25 (≈ 15.3 µM) | 6.25 (≈ 15.3 µM) | 0.39 (≈ 0.955 µM) | 25 (≈ 61.2 µM) | – | – | – | –
CC[C@H](O)[C@@H]1C(=O)N2C(C(=O)O)=C(S[C@H]3CCN(C4Cc5ccccc5C4)C3)S[C@H]12 [Ex. 214] | 3.13 (≈ 7.01 µM) | 6.25 (≈ 14 µM) | 0.1 (≈ 0.224 µM) | 6.25 (≈ 14 µM) | – | – | – | –
CC[C@H](O)[C@@H]1C(=O)N2C(C(=O)O)=C(SC3CCc4cccnc43)S[C@H]12 (stereo partly shown) [Ex. 232] | – | – | – | – | 3.13 (≈ 8.27 µM) | 3.13 (≈ 8.27 µM) | 0.05 µg/mL (≈ 0.132 µM) | 12.5 (≈ 33 µM)
